Reference: patent US10421964B2, “UNA oligomers and compositions for treating amyloidosis” (Arcturus Therapeutics, Inc., priority 2015, dated 2019)
[UNA] = unlocked nucleic acid; m = 2'-O-methyl; r = 2'-OH (RNA)

How the values were obtained:
[1] = lipid; cited from earlier work
[2] = test system: V30M gene reporter variant (nucleotide sequence 264 to 304 of human TTR containing the point mutation at position 284); test: PSICHECK reporter assay against V30M gene reporter variant; type: cell-based; settings: for effectiveness against V30M compared with V30V: V30V and V30M gene reporter variants; for selectivity against V30M over V30V: IC50 against V30V over IC50 against V30M; for IC50: V30M gene reporter variant
Description: (§1) Conventional siRNAs that are complementary to the […] mRNA were tiled around position 284. […] Positions 5, 9, 14 and 15 appear to be more accessible to silencing than other positions. […] Four conventional siRNA variations, namely V30M-P5, V30M-P9, V30M-P14, and V30M-P15, were prepared.
(§2) Thus, the selectivity of the conventional siRNAs against V30M over V30V was no more than 5.6.

[3] = test system: V30V gene reporter variant (nucleotide sequence 264 to 304 of human TTR without the point mutation at position 284); test: PSICHECK reporter assay against V30V gene reporter variant; type: cell-based
Description: as §1, §2

[4] = test system: Transthyretin TTR mRNA; test: Knockdown of TTR protein in plasma of Cynomolgus monkeys after single IV dose of liposomal UNA oligomer (LC-MS/MS SRM); type: in vivo, Cynomolgus monkeys (Macaca fascicularis)
Description: A single-dose, pharmacokinetic and pharmacodynamic study of liposomally formulated UNA Oligomers targeting transthyretin (TTR) mRNA following intravenous infusion in Cynomolgus monkeys was performed.
Cynomolgus monkeys (Macaca fascicularis) were selected for this study because the TTR mRNA of Cynomolgus monkeys is homologous to human TTR mRNA, making them a good model for screening the potency of UNA oligomers targeting to TTR mRNA.
In this study, the knockdown of Transthyretin protein was evaluated as a result of treatment with UNA oligomers targeting Transthyretin TTR mRNA, based on SEQ ID NOs:46/86, 59/99, and 60/100, delivered in a liposomal formulation to male Cynomolgus monkeys. Measurements were made following a single intravenous (IV) dose administration. TTR protein concentration in plasma samples was assessed by LC-MS/MS at various time points.
Animals in Groups 1 through 8 were administered the test articles on Day 1 at 0.3 mg/kg, dose volume 6.25 mL/kg, concentration 0.048 mg/mL. Doses were administered as a 15-minute intravenous (IV) infusion, +1 minute, using a pump and disposable syringe.
For each animal, infusion start and end times were recorded; and subsequent sample collection target times were determined based on infusion end time (t=0). All blood specimens, approximately 1 mL, were collected by venipuncture from a peripheral vein from restrained, conscious animals.
The Monkey TTR SRM assay was used, which is a high throughput absolute protein quantitation assay using Selected Reaction Monitoring (SRM) technology platform. In a single SRM assay, the panel can multiplex up to 200 proteins. The assay was performed on a targeted absolute protein quantitation platform, where the key technology was SRM, sometimes also referred to as Multiple Reaction Monitoring (MRM). In a triple-quadrupole (QQQ) mass spectrometer, SRM/MRM is a tandem selection process where selecting peptides by precursor m/z is followed by selecting fragmentations (transitions) of the targeted peptide.

CCCCCC/C=C\COC(=O)CCCCCCCN(CCCCCCCC(=O)OC/C=C\CCCCCC)C(=O)CSCCCN(CC)CC [ATX- 008]
pKa [1]: 10

CCCCCC/C=C\COC(=O)CCCCCCCN(CCCCCCCC(=O)OC/C=C\CCCCCC)C(=O)SCCCN(CC)CC [ATX- 012]
pKa [1]: 10

ĞCCAUGCAUGUGUUCAGAAŨmU / UUCUGAACACAUGCAUĞGCŨmU (chain 1 GCCAUGCAUGUGUUCAGAAUU; chain 2 UUCUGAACACAUGCAUGGCUU; siRNA; chain 1: sugars from the 5' end [UNA]1 r18 [UNA]1 m1, backbone not given here; chain 2: sugars from the 5' end r16 [UNA]1 r2 [UNA]1 m1, backbone not given here) [P16U17]
silencing V30M TTR [2]: effective in silencing V30M TTR

ĞCCAUGCAUGUGUUCAGAAŨmU / UUCUGAACACAUGCAŨGGCŨmU (chain 1 GCCAUGCAUGUGUUCAGAAUU; chain 2 UUCUGAACACAUGCAUGGCUU; siRNA; chain 1: sugars from the 5' end [UNA]1 r18 [UNA]1 m1, backbone not given here; chain 2: sugars from the 5' end r15 [UNA]1 r3 [UNA]1 m1, backbone not given here) [P16U16]
activity compared to the conventional siRNA, each targeted to V30M [2]: superior to the activity of the conventional siRNA V30M-P16 | selectivity against V30M over V30V compared to the conventional siRNA [2]: substantially greater than for the conventional siRNA V30M-P16 | silencing V30M TTR [2]: effective in silencing V30M TTR | effectiveness against V30M compared with V30V [2]: more effective against V30M than V30V

ĞCCAUGCAUGUGUUCAGAAŨmU / UUCUGAACACAUGCÃUGGCŨmU (chain 1 GCCAUGCAUGUGUUCAGAAUU; chain 2 UUCUGAACACAUGCAUGGCUU; siRNA; chain 1: sugars from the 5' end [UNA]1 r18 [UNA]1 m1, backbone not given here; chain 2: sugars from the 5' end r14 [UNA]1 r4 [UNA]1 m1, backbone not given here) [P16U15]
activity compared to the conventional siRNA, each targeted to V30M [2]: superior to the activity of the conventional siRNA V30M-P16 | selectivity against V30M over V30V compared to the conventional siRNA [2]: substantially greater than for the conventional siRNA V30M-P16 | silencing V30M TTR [2]: effective in silencing V30M TTR | effectiveness against V30M compared with V30V [2]: more effective against V30M than V30V

ĞCCAUGCAUGUGUUCAGAAŨmU / UUCUGAÃCACAUGCAUGGCŨmU (chain 1 GCCAUGCAUGUGUUCAGAAUU; chain 2 UUCUGAACACAUGCAUGGCUU; siRNA; chain 1: sugars from the 5' end [UNA]1 r18 [UNA]1 m1, backbone not given here; chain 2: sugars from the 5' end r6 [UNA]1 r12 [UNA]1 m1, backbone not given here) [P16U7]
activity compared to the conventional siRNA, each targeted to V30M [2]: superior to the activity of the conventional siRNA V30M-P16 | selectivity against V30M over V30V compared to the conventional siRNA [2]: substantially greater than for the conventional siRNA V30M-P16 | silencing V30M TTR [2]: effective in silencing V30M TTR | effectiveness against V30M compared with V30V [2]: more effective against V30M than V30V

ĞCCAUGCAUGUGUUCAGAAŨmU / UUCUGÃACACAUGCAUGGCŨmU (chain 1 GCCAUGCAUGUGUUCAGAAUU; chain 2 UUCUGAACACAUGCAUGGCUU; siRNA; chain 1: sugars from the 5' end [UNA]1 r18 [UNA]1 m1, backbone not given here; chain 2: sugars from the 5' end r5 [UNA]1 r13 [UNA]1 m1, backbone not given here) [P16U6]
activity compared to the conventional siRNA, each targeted to V30M [2]: superior to the activity of the conventional siRNA V30M-P16 | selectivity against V30M over V30V compared to the conventional siRNA [2]: substantially greater than for the conventional siRNA V30M-P16 | silencing V30M TTR [2]: effective in silencing V30M TTR | superiority of selectivity over the selectivity of 5.6 of the conventional siRNA [2]: 4 fold | selectivity against V30M over V30V [2]: 23 | IC50 [2]: 0.0924 nM | effectiveness against V30M compared with V30V [2]: more effective against V30M than V30V | IC50 [3]: 2.12 nM

ĞGCCAUGCAUGUGUUCAGAŨmU / UCUGAACACAUGCAUĞGCCŨmU (chain 1 GGCCAUGCAUGUGUUCAGAUU; chain 2 UCUGAACACAUGCAUGGCCUU; siRNA; chain 1: sugars from the 5' end [UNA]1 r18 [UNA]1 m1, backbone not given here; chain 2: sugars from the 5' end r15 [UNA]1 r3 [UNA]1 m1, backbone not given here) [P15U16]
selectivity against V30M over V30V compared to the conventional siRNA [2]: substantially greater than for the conventional siRNA V30M-P15 | silencing V30M TTR [2]: effective in silencing V30M TTR | effectiveness against V30M compared with V30V [2]: more effective against V30M than V30V

ĞGCCAUGCAUGUGUUCAGAŨmU / UCUGAACACAUGCAŨGGCCŨmU (chain 1 GGCCAUGCAUGUGUUCAGAUU; chain 2 UCUGAACACAUGCAUGGCCUU; siRNA; chain 1: sugars from the 5' end [UNA]1 r18 [UNA]1 m1, backbone not given here; chain 2: sugars from the 5' end r14 [UNA]1 r4 [UNA]1 m1, backbone not given here) [P15U15]
selectivity against V30M over V30V compared to the conventional siRNA [2]: substantially greater than for the conventional siRNA V30M-P15 | silencing V30M TTR [2]: effective in silencing V30M TTR | effectiveness against V30M compared with V30V [2]: more effective against V30M than V30V

ĞGCCAUGCAUGUGUUCAGAŨmU / UCUGAACACAUGCÃUGGCCŨmU (chain 1 GGCCAUGCAUGUGUUCAGAUU; chain 2 UCUGAACACAUGCAUGGCCUU; siRNA; chain 1: sugars from the 5' end [UNA]1 r18 [UNA]1 m1, backbone not given here; chain 2: sugars from the 5' end r13 [UNA]1 r5 [UNA]1 m1, backbone not given here) [P15U14]
silencing V30M TTR [2]: effective in silencing V30M TTR

ĞGCCAUGCAUGUGUUCAGAŨmU / UCUGAAĈACAUGCAUGGCCŨmU (chain 1 GGCCAUGCAUGUGUUCAGAUU; chain 2 UCUGAACACAUGCAUGGCCUU; siRNA; chain 1: sugars from the 5' end [UNA]1 r18 [UNA]1 m1, backbone not given here; chain 2: sugars from the 5' end r6 [UNA]1 r12 [UNA]1 m1, backbone not given here) [P15U7]
selectivity against V30M over V30V compared to the conventional siRNA [2]: substantially greater than for the conventional siRNA V30M-P15 | silencing V30M TTR [2]: effective in silencing V30M TTR | effectiveness against V30M compared with V30V [2]: more effective against V30M than V30V

ĞGCCAUGCAUGUGUUCAGAŨmU / UCUGAÃCACAUGCAUGGCCŨmU (chain 1 GGCCAUGCAUGUGUUCAGAUU; chain 2 UCUGAACACAUGCAUGGCCUU; siRNA; chain 1: sugars from the 5' end [UNA]1 r18 [UNA]1 m1, backbone not given here; chain 2: sugars from the 5' end r5 [UNA]1 r13 [UNA]1 m1, backbone not given here) [P15U6]
activity compared to the conventional siRNA, each targeted to V30M [2]: superior to the activity of the conventional siRNA V30M-P15 | selectivity against V30M over V30V compared to the conventional siRNA [2]: substantially greater than for the conventional siRNA V30M-P15 | silencing V30M TTR [2]: effective in silencing V30M TTR | superiority of selectivity over the selectivity of 5.6 of the conventional siRNA [2]: 4 fold | selectivity against V30M over V30V [2]: 24 | IC50 [2]: 0.0376 nM | effectiveness against V30M compared with V30V [2]: more effective against V30M than V30V | IC50 [3]: 0.92 nM

ŨAACCAAGAGUAUUCCAUUŨmU / AAUGGAAUACUCUUGGUUAŨmU (chain 1 UAACCAAGAGUAUUCCAUUUU; chain 2 AAUGGAAUACUCUUGGUUAUU; siRNA; chain 1: sugars from the 5' end [UNA]1 r18 [UNA]1 m1, backbone not given here; chain 2: sugars from the 5' end r19 [UNA]1 m1, backbone not given here) [SEQ ID NO:60/100]
knockdown of TTR ([4]; at 20 days, single IV dose 0.3 mg/kg, primates): over 91% | knockdown of TTR ([4]; continuous duration of more than 20 days, single IV dose 0.3 mg/kg, primates): more than 70% | TTR protein levels ([4]; continuous duration of more than one month (30 days), single injection, primates): below 50% | knockdown of Transthyretin protein in vivo ([4]; liposomal formulation, male Cynomolgus monkeys, single IV dose 0.3 mg/kg, plasma): achieved
